Entries after “also recorded” stand apart in the source; their conditions may differ.
Assays:
[1] = test system: T98G (human glioblastoma) cells; assay: Mitosis block / morphology of treated cell cultures, T98G; format: cell-based; conditions: for antiproliferative activity (through the inhibition of mitosis): T98G tumor cells; for morphological changes characteristic of block in mitosis (M phase arrest): T98G, 24 hours of culture, FIG. 1: L1 0.74 mM, Colcemid 5.41 mM
Description: (§1) The commercial embryonic cell line of the human kidney 293T (Banca Biologica and Cell Factory—IRCCS AOU San Martino—IST Genova, catalog code ICLC HTL03003), that of murine macrophages J774 and RAW (ICLC ATL98011 and ATL02001), that of Glioblastoma del human brain T98G (ATCC® CRL-1690™) and that of human epithelial adenocarcinoma Caco-2 (ICL HTL97023), were provided by the National Institute for Research on Cancer c/o CBA (ICLC, Genoa). A minimal essential cell culture medium, MEM (EBSS), with 10% fetal bovine serum (FBS), 100 units per mL penicillin, […] streptomycin, 2 mM glutamine and 1% not essential amino acids was used. To reach the experimental conditions, the confluent cells were isolated using trypsin/EDTA. The cells of the different cell lines (2-3×10^4 cells per cm^2) were seeded in 35 mm cell discs and then incubated at 37° C. in 5% CO2. After 24 hours of growth in complete culture medium, the cells were cultured according to the different experimental conditions foreseen by the project.

[2] = test system: Caco2 (colon adenocarcinoma) cells; assay: Mitosis block / morphology of treated cell cultures, CaCo2; conditions: for antiproliferative activity (through the inhibition of mitosis): CaCo2 tumor cells; for morphological changes characteristic of block in mitosis (M phase arrest): CaCo2, 24 hours of culture, FIG. 1: L1 0.74 mM, Colcemid 5.41 mM
Description: as §1

[3] = test system: Caco-2 human epithelial adenocarcinoma cells
Experimental: Treated and untreated control samples of Caco-2 human epithelial adenocarcinoma cells were fixed for 2 hours in 1% paraformaldehyde (para) and 1.25% glutaraldehyde solution in 0.1 M, pH 7.4 sodium cacodylate buffer. After rinsing in the same buffer, the samples were post-fixed in 1% osmium tetroxide for 1 hour and stained in 0.25% uranyl acetate overnight at 4° C.
The cell cultures were dehydrated in increasing scale of ethanol and xylene, subsequently, to proceed with the embedding in Embed 812 resin, the samples were transferred in inclusion flat molds in an oven at 60° C. for the 24 hours necessary for the polymerization of the resin. From the resulting blocks, 1 μm thick sections were obtained and then stained with toluidine blue for preliminary analysis by light microscopy. Finally, thin sections of 60-90 nm (ultramicrotome 8800 LKB), contrasted with […] and bismuth subnitrate, were observed and photographed with a transmission electron microscope (model JEOL 1400 plus, Tokyo, Japan) operating at 80 kV.

RAW macrophages = assay: Mitosis block / morphology of treated cell cultures, RAW; format: cell-based, murine; conditions: RAW normal cells; FIG. 1: L1 0.74 mM, Colcemid 5.41 mM
Description: as §1

CaCo2 cells = test system: CaCo2 cells
Experimental: A possible cytotoxic effect (ID50) of the L1 molecule was evaluated in CaCo2 cells by viable staining with trypan blue under different experimental conditions. Cell number (FIG. 3) and viability (FIG. 4) were assessed using the LunaFL cell counter (www.logosbio.com) or by direct observation under the light microscope. Briefly, the cell samples mixed and diluted 1:1 with a 0.2% Trypan Blue solution were counted, after 1-3 minutes, in the counting chamber slide present in the analyzer of the Luna automatic system. […] To obtain an accurate measurement of cell viability, the cell count was repeated at least three times in at least three experiments under the same experimental conditions. The observation under the optical microscope (FIG. 5) was made by adding the Trypan Blue solution to the cells to be observed for a few minutes. The percentage of live cells (trypan blue negative) compared to dead ones (trypan blue positive) in each experimental culture condition was then calculated.

[4] = test system: embryonic kidney cells (293T cells); assay: Mitosis block / morphology of treated cell cultures, 293T; format: cell-based, human; conditions: for morphological changes characteristic of block in mitosis (M phase arrest): 293T normal cells, FIG. 1: L1 0.74 mM, Colcemid 5.41 mM
Description: as §1

macrophages (J774 cells) = test system: macrophages (J774 cells)
Description: as §1

[5] = test system: BAX, BCL2, OH-1, PRDX gene expression in CaCo2 cells; conditions: 24 hours, L1 0.74 mM (FIG. 6)
Experimental: (§2) Coding for a protein that may play a role in the control of cell proliferation and in tumor development and progression.
(§3) The cells, after treatment, were immediately frozen and stored at −80° C. until RNA extraction. The RNA was extracted with the NorDiag ARROW RNA Kit using the company's automated tool. Actin was used as a reference gene. Real-time reverse transcriptase PCR was performed using the Roche Light Cycler System and the SYBR Green I Amplification Kit (Roche Diagnostics). The primers used for the beta actin control gene are as follows: b-actF=5′-[…]-3′, b-actR=5′-[…]-3′, e (Gen-Bank n. NM_001101). While the following oligo nucleotides were used for the genes under consideration:
(§4) The final reaction volume of 20 μl contained: a final concentration of 3 mM MgCl2, […] of each primer and 2 μl of RNA extract. The real time reaction program includes: an initial reverse transcription at 55° C. for 10 minutes, a denaturation cycle at 95° C. for 30 seconds followed by 35 cycles at 95° for 5 seconds, 53° C. for 10 seconds and 72° C. for 12 seconds, the fluorescence reading was performed in the 72° C. phase
(§5) The relative gene expression was analyzed using the 2-AACT method [KJ Livak and TD Schmittgen, Analysis of relative gene expression data by Quantitative real-time PCR and 2-AACT method, methods, 2001, 25, 402-408]. Three distinct experimental replicates were performed for each analysis and the quantitative data were expressed as mean. The experiment was repeated if the dispersion of the values of the threshold cycles, compared to the mean, was too high. A standard deviation for each replicate equal to ±1 cut-off cycle was accepted.

[6] = test system: BAX, BCL2, OH-1, PRDX gene expression in 293T cells; conditions: 24 hours, L1 0.74 mM (FIG. 6)
Experimental: as §2, §3, §4, §5

[7] = Caco2, treatment continued for up to 72 hours

## O=c1cc(CNCCN(CCNCc2cc(=O)c(O)co2)CCNCc2cc(=O)c(O)co2)occ1O [L4, 6,6′,6″-(((nitrilotris(ethane-2,1-diyl))tris(azanediyl))tris(methylene))tri s(3-hydroxy-4H-pyran-4-one)]
[1]
  antiproliferative activity (through the inhibition of mitosis): not those (L2, L3 and L4) showed antiproliferative activity
[2]
  antiproliferative activity (through the inhibition of mitosis): not those (L2, L3 and L4) showed antiproliferative activity

## O=c1cc(CNCCCNCc2cc(=O)c(O)co2)occ1O [L2, 2,2′-[propane-1,3-diylbis (iminomethanediyl)]bis(5-hydroxy-4H-pyran-4-one)]
[1]
  antiproliferative activity (through the inhibition of mitosis): not those (L2, L3 and L4) showed antiproliferative activity
[2]
  antiproliferative activity (through the inhibition of mitosis): not those (L2, L3 and L4) showed antiproliferative activity

## O=c1cc(CNCCCCNCc2cc(=O)c(O)co2)occ1O [L3, 2,2′-[butane-1,4-diylbis (iminomethanediyl)]bis(5-hydroxy-4H-pyran-4-one)]
[1]
  antiproliferative activity (through the inhibition of mitosis): not those (L2, L3 and L4) showed antiproliferative activity
[2]
  antiproliferative activity (through the inhibition of mitosis): not those (L2, L3 and L4) showed antiproliferative activity

## O=c1cc(CNCCNCc2cc(=O)c(O)co2)occ1O [L1, 2,2′-ethane-1,2-diylbis (iminomethanediyl)This(5-hydroxy-4H-pyran-4-one)]
[3]; Caco2, L1 0.74 mM (FIG. 2)
  effect on cell division by ultrastructural analysis (SEM and TEM): acts specifically on the cell division (mitosis) process
[3]; Caco-2, L1 0.74 mM (FIG. 2A)
  nuclear fragmentation (microscopy): occasionally, cells showing fragmentation of their nuclei have been observed
[3]; Caco-2, L1 0.74 mM (FIG. 2B)
  cellular architecture during the interphase (TEM): does not appear to affect the cellular architecture of most cells
[1]
  antiproliferative activity (through the inhibition of mitosis): showed antiproliferative activity
  morphological changes characteristic of block in mitosis (M phase arrest): showed morphological changes characteristic of mitotic-blocked cells; also recorded: arrest in M phase similar to that induced by Colcemid
RAW macrophages
  morphological changes characteristic of block in mitosis (M phase arrest): apparently normal
[2]
  morphological changes characteristic of block in mitosis (M phase arrest): showed morphological changes characteristic of mitotic-blocked cells; also recorded: arrest in M phase similar to that induced by Colcemid
  antiproliferative activity (through the inhibition of mitosis): showed antiproliferative activity
[2]; Caco2
  concentration at which all the cells have a modified morphology: 2.22 mM
  treatment time after which half of the Caco2 cells were blocked in mitosis: 4.5 h
  treatment time after which the block of all treated cells was achieved: 24 h
[2]; Caco2, after 24 hours of treatment
  minimum concentration able to induce evident morphological changes: 0.069 mM
[2]; Caco2, control = same cell line cultured without L1
  reduction in the number of cells versus control sample (on average): 4 times lower
[2]; [7]
  cell fate on continued treatment: begin to die from apoptosis
  reversibility of mitosis inhibition: irreversible
[2]; Caco2, treatment stopped after 24 hours, medium replaced
  reversibility of mitosis inhibition: reversible
CaCo2 cells; L1 0.74 mM (FIG. 4)
  viability (Trypan Blue, LunaFL): comparable to that of the respective control
CaCo2 cells; repeated treatments with L1
  number of cells after repeated treatments: further reduction in the number of cells
CaCo2 cells; treated for 24 hours, L1 0.74 mM (FIG. 3)
  number of cells compared to those not treated (LunaFL count): clear reduction in the number of CaCo2 cells
[4]
  morphological changes characteristic of block in mitosis (M phase arrest): apparently normal
[4]; embryonic kidney cells (293 cells)
  effect in non-tumor cell line: no effect
Macrophages (J774 cells)
  effect in non-tumor cell line: no effect
[5]
  BAX gene expression (mRNA): significantly reduces the expression
  BCL2 gene expression (mRNA): significantly reduces the expression
  OH-1 gene expression (mRNA): significantly reduces the expression
  PRDX gene expression (mRNA): significantly reduces the expression
[6]
  BAX gene expression (mRNA): increased expression
  BCL2 gene expression (mRNA): increased expression
  OH-1 gene expression (mRNA): increased expression
  PRDX gene expression (mRNA): completely inhibiting the expression

## CN[C@H]1CCc2cc(OC)c(OC)c(OC)c2-c2ccc(OC)c(=O)cc21 [Colcemid, desacetylmethylcolchicine, reference compound]
[1]
  morphological changes characteristic of block in mitosis (M phase arrest): all cell lines respond
[1]; listed as colcemide
  morphological changes characteristic of block in mitosis (M phase arrest): all cell lines studied showed the morphological changes characteristic of blocked cells in mitosis
RAW macrophages
  morphological changes characteristic of block in mitosis (M phase arrest): all cell lines respond
[2]
  morphological changes characteristic of block in mitosis (M phase arrest): all cell lines respond
[2]; listed as colcemide
  morphological changes characteristic of block in mitosis (M phase arrest): all cell lines studied showed the morphological changes characteristic of blocked cells in mitosis
[4]
  morphological changes characteristic of block in mitosis (M phase arrest): all cell lines respond

From patent US20230338328A1, “KOJIC ACID DERIVATIVE AS SELECTIVE INHIBITOR OF MITOSIS IN COLORECTAL AND GLIOBLASTOMA CANCER CELLS” (UNIVERSITA' DEGLI STUDI DI CAGLIARI, priority 2020, published 2023)
